Like-named read-outs stand apart in the source and are kept apart here.
Legend:
hTERC rG4 [1] = assay: Ligand-enhanced fluorescence assay; parameters: species or system human; details: 100 nM hTERC rG4
Protocol: HTERC rG4 (100 nM) in Tris-HCl buffer (25 mM Tris-HCl, pH 7.5, 150 mM KCl, and 1 mM MgCl2) was heated at 95° C. for 3 minutes and cooled down at 25° C. for 10 minutes. 10 μL of the peptide and rG4 mixture were incubated for 30 minutes at room temperature. Fluorescence spectroscopy was performed using a microplate reader in 384 well plate. The samples were excited at 394 nm and the emission spectra were detected at 610 nm. The plot was carried out by software.

[2] = system: hTERC rG4 WT construct in HeLa cells; assay: Dual-luciferase reporter gene assay, hTERC rG4 WT construct; assay type: cell-based, human; details: peptide 0, 100, 200 nM, 48 hours
Protocol: (§1) Wild-type or mutant hTERC rG4 construct was inserted into the HSV-TK promoter at the SacII restriction enzyme site of firefly/renilla dual luciferase reporter vector, psiCHECK-2. Then, wild-type or mutant reporter plasmid was transfected into Hela cells together with peptides (0, 100, 200 nM) using nucleofector. Each well of the 96-well black-wall optical plate was transfected with 30 ng plasmids. The luciferase reporter gene assays were performed after 48 hours of incubation using the dual-luciferase reporter assay kit. The microplate reader was used to measure luciferase activities with renilla luciferase serving as an internal control. The ratio of firefly to renilla was calculated to analyze the data. Three replicates were performed for each measurement, and the error bar was plotted based on the standard deviation. The P-value was calculated using two-tailed unpaired Student's t-tests to evaluate the significance of the samples.
After confirming that the rG4-targeting peptides can interact with rG4 structures in live cells, their effect on modulating rG4-mediated gene expression was examined in the example. Dual luciferase reporter gene assay was conducted in HeLa cells, in which hTERC rG4 WT motif (SEQ ID NO: 12) or hTERC rG4 MUT motif (SEQ ID NO: 13) was inserted in the 5′ untranslated region (5′ UTR) of the renilla luciferase gene region separately, and the firefly luciferase gene was used as a normalized gene (FIG. 1).

[3] = system: rG4s, dG4s (c-MYC, c-kit1, HRAS-1, hTelo) and non-G4 targets (scramble G-rich sequence, DNA hairpin, RNA hairpin); assay: MST binding selectivity test with different rG4s, dG4s and non-G4 targets; details: data not shown
Protocol: (§2) The RNA was subjected to heat treatment at 75° C. for 5 minutes followed by cooling down to room temperature for 10 minutes for renaturation purposes. For binding affinity and selectivity test, reaction mixtures containing 50 nM FAM-labelled RNA, 150 mM KCl, 1 mM MgCl2, 25 mM Tris-HCl (pH 7.5) and varying concentrations of peptide were prepared and incubated at 37° C. for 30 minutes. The samples were then loaded into MST capillary tubes, and the measurements were taken at 25° C. using blue light mode and the binding affinity mode. The data obtained from these measurements were analyzed using MST nano temper analysis (nta) analysis software. The curve fitting and dissociation constant (Kd) determination were carried out by software using the one site-specific binding model.

hTERC rG4 [4] = assay: Microscale thermophoresis (MST) binding assay; parameters: species or system human; details: 50 nM FAM-labelled RNA, 150 mM KCl
Protocol: as §2

[5] = system: 5' FAM, 3' TAMRA labelled hTERC rG4; assay: FRET melting assay; assay type: binding, human; details: increasing peptide concentration, 0-2 μM; 0.2 μM rG4
Protocol: FRET-melting assay was performed with 5′ FAM, 3′ TAMRA labelled hTERC rG4. The oligonucleotides were prepared at 0.2 μM, and the peptides were prepared at 0, 0.2, 0.4, 1 or 2 μM final concentration. The samples were excited at 492 nm and the emission spectra were detected at 516 nm in a buffer containing 10 mM lithium cacodylate and 1 mM KCl. The rG4 was heated at 95° C. for 5 minutes and cooled down in room temperature to refold for 10 minutes before adding the peptides. The signal was monitored by real-time PCR detection system with a procedure of 30 minutes at 25° C., then an increase of 0.5° C. every minute until 95° C. Each experimental condition was tested in three duplicates in a volume of 25 μL for each sample. The data were blanked, averaged and smoothed over 2° C. The plot was carried out by software.

[6] = system: hTERC rG4 MUT construct in HeLa cells; assay: Dual-luciferase reporter gene assay, hTERC rG4 MUT construct; assay type: cell-based, human; details: peptide 0, 100, 200 nM, 48 hours
Protocol: as §1
After confirming that the rG4-targeting peptides can interact with rG4 structures in live cells, their effect on modulating rG4-mediated gene expression was examined in the example. […]

[7] = system: hTERC rG4 WT in HeLa cells; assay: Cell imaging, co-transfection with hTERC rG4 WT; assay type: cell-based, human; details: 5 hours post-transfection, data not shown
Protocol: (§3) HeLa cells were seeded on a 3.5 cm confocal dish 1 day before transfection. FAM-labelled hTERC rG4 was heated to 75° C. for 5 minutes, annealed at 25° C., and then co-transfected with TAMRA-labelled peptide using LIPOFECTAMINE® 2000. Five hours post-transfection, the cells were stained with 50 nM deep red-fluorescent dye (labeling and tracking acidic organelles in live cells) for 30 minutes and 5 μg/mL Hoechst dye (staining nucleic acid) for 15 minutes. The images were monitored using a laser confocal scanning microscope. Fluorescence statistics of cells were analyzed using software.

hTERC rG4 wild-type (WT) = assay: Filter binding assay, hTERC rG4 wild-type; parameters: species or system human; details: data not shown
Protocol: (§4) In the binding affinity and selectivity tests, reaction mixtures containing 5 nM biotin-labeled RNA, 25 mM Tris-HCl (pH 7.5), 150 mM KCl, 1 mM MgCl2 and varying concentrations of peptides were prepared in 50 μL and incubated at 37° C. for 30 minutes before loaded onto an apparatus containing a nitrocellulose membrane (top) and nylon membrane (bottom). The nylon membrane was rinsed with 0.5× Tris-borate-EDTA (TBE) buffer for 5 minutes, and the nitrocellulose membrane was rinsed with 0.5 M KOH for 15 minutes at 4° C. and then rinsed with 0.5×TBE buffer for one time prior to use. The membranes were washed with binding buffer for three times before and after applying the sample to the apparatus. The crosslinking step was carried out by exposing the membranes to UV irradiation at 254 nm, 120,000 microjoules/cm^2 for 5 minutes. The results were detected using a chemiluminescent nucleic acid detection module kit, and the scanned by an imaging system.

hTERC rG4 mutant (MUT) = assay: Filter binding assay, hTERC rG4 mutant; parameters: species or system human; details: data not shown
Protocol: as §4

[8] = system: hTERC rG4 MUT in HeLa cells; assay: Cell imaging, co-transfection with hTERC rG4 MUT; assay type: cell-based, human; details: 5 hours post-transfection, data not shown
Protocol: as §3

RHAU53: positive control peptide reported to interact with rG4s; sequence SMHPGHLKGREIGMWYAKKQGQKNKEAERQERAVVHMDERREEQIVQLLNSVQA K (SEQ ID NO: 4) (SMHPGHLKGREIGMWYAKKQGQKNKEAERQERAVVHMDERREEQIVQLLNSVQAK)
fluorescence signal / conformational change of G4 upon peptide binding (hTERC rG4 [1]): exhibited a similar result
normalized luciferase activity, WT construct [2]: effects of both tandem and cyclic pep11 were comparable to that of RHAU53

de novo G4-binding peptide with amino acid sequence TKRKHPHRRKYR (SEQ ID NO: 1) [pep11]
binding selectivity among rG4s, dG4s and non-G4s [3]: only rG4s exhibited observable binding
Kd (hTERC rG4 [4]; read-out: Kd, binding to hTERC rG4): 1370 ± 220 nM
melting temperature of hTERC rG4 [5]: Higher melting temperatures

pep71: negative control peptide with amino acid sequence AHPLTKPPKYHH (SEQ ID NO: 5) [reference compound]
normalized luciferase activity, WT construct [2]: did not impact
normalized luciferase activity, MUT construct [6]: did not impact

two pep11 domains linked by (GTGSGA)3: TKRKHPHRRKYRGTGSGAGTGSGAGTGSGATKRKHPHRRKYR (SEQ ID NO: 3) [tandem pep11]
binding selectivity among rG4s, dG4s and non-G4s [3]: bound to other rG4s but not to non-G4s and weakly to dG4s
colocalization of TAMRA-labelled peptide with hTERC rG4 WT foci in live cells [7]: clear colocalization of TAMRA signals with the fluorescent foci
binding to hTERC rG4 WT (hTERC rG4 wild-type (WT)): bound to hTERC rG4 WT
binding to hTERC rG4 MUT (hTERC rG4 mutant (MUT)): not MUT
normalized luciferase activity, WT construct [2]: the inhibition extended with increasing concentration
Kd (hTERC rG4 [4]; read-out: Kd, binding affinity to hTERC rG4): 449 ± 62 nM
foci in cells transfected with hTERC rG4 MUT [8]: few foci were observed
melting temperature of hTERC rG4 [5]: Higher melting temperatures
